Experimental data as given in PubChem BioAssay AID1421 (Emory University Molecular Libraries Screening Center, 2008).
Active and inactive are the calls of the source. How the calls were made is not given here.

Target: Prostaglandin E2 receptor EP2 subtype (Homo sapiens) (UniProt P43116)
Test: EP2 receptor modulators, dose response, cell-based, human EP2, PGE2 EC50 shift (AID 1421)
Details: EP2-expressing cells, PGE2 EC50 shift by compound

Prostaglandin E2 receptor EP2 subtype (Homo sapiens), sequence (P43116 whole entry, looked up): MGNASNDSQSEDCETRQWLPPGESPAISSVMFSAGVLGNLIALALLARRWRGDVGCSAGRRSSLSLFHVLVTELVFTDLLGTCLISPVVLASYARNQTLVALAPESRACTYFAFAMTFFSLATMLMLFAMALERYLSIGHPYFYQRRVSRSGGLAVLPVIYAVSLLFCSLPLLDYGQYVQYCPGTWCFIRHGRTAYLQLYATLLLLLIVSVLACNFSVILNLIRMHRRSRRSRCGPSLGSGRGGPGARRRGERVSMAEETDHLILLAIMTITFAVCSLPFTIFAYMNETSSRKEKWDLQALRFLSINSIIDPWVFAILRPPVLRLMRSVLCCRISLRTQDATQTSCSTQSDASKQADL

Row | SMILES | outcome
1 | CN1CCCN(C(=O)Cc2c(Cl)cccc2Cl)c2nc3ccccc3nc21 | active
2 | COc1cc(-c2nc(-c3cccc(C)c3)no2)cc(OC)c1OC | active
3 | CCc1ccccc1NC1c2ccccc2C(=O)N1c1cc(C)ccn1 (stereo not given) | active
4 | CC1=CC(C)(C)N(C(=O)c2ccccc2)c2ccccc21 | active
5 | O=C(Nc1ccccc1N1CCCCC1)c1ccccc1F | active
6 | O=C1CCC(c2ccccc2)=NN1Cc1c(F)cccc1Cl | active
7 | COC(=O)c1c(NC(=O)C2CC2)sc2c1CCCC2 | active
8 | C/C(=N\NC(=O)NC1CCCCC1)C1CCCCC1 | active
9 | CC(C)Cc1nc(N2CCCCC2)c(C#N)c2c1CCC2 | active

Same assay, conditions: EP2-expressing cells, PGE2 EC50 shift by compound; measured here: PGE2 EC50 at 6.7 uM compound

Row | SMILES | PGE2 EC50 with compound [nM]
10 | CCCn1c(SCC(=O)Nc2sc(C)c(C)c2C(=O)OCC)nc2c1c(=O)n(C)c(=O)n2C | 1.35
11 | CN1CCCN(C(=O)Cc2c(Cl)cccc2Cl)c2nc3ccccc3nc21 | 0.9
12 | Cc1ccc(S(=O)(=O)NCC(=O)N(c2ccccc2)C(C(=O)NCc2ccccc2)c2ccco2)cc1 (stereo not given) | 1
13 | Cc1ccccc1N=C1SCC(=O)N1Cc1ccccc1 | 1.2
14 | N#CC1=C(N)SC(N)=C(C#N)C1c1ccoc1 | 2.61
15 | Cc1cccc(NC(=O)CSc2ncnc3c2oc2ccccc23)c1 | 2.85
16 | O=S1(=O)N=C(N(CCO)/N=C/C=C/c2ccccc2)c2ccccc21 | 2.08
17 | O=C(c1ccco1)N(CCC(c1ccccc1)c1ccco1)Cc1ccc(F)cc1 (stereo not given) | 1.11
18 | COc1cc(-c2nc(-c3cccc(C)c3)no2)cc(OC)c1OC | 1.14
19 | COc1cccc2[nH]c3c(N4CCCC(C)C4)ncnc3c12 (stereo not given) | 23.2
20 | O=c1c2c(n3cnnc3n1C1CCCCC1)-c1ccccc1CC21CCCCC1 | 0.33
21 | COc1cc(OC)cc(-c2nc(N)n[nH]2)c1 | 0.8
22 | CC(C)n1cc(-c2ccc(Cl)cc2)cc(C#N)c1=O | 1.21
23 | CCc1ccc(OCc2n[nH]c(=S)n2C(C)CCCC(C)C)cc1 (stereo not given) | 1.4
24 | CCCCOc1ccccc1C1C(C(=O)OC)=C(C)N(C)C(C)=C1C(=O)OC | 0.69
25 | CCc1ccccc1NC1c2ccccc2C(=O)N1c1cc(C)ccn1 (stereo not given) | 2.49
26 | Cc1ccc(Cl)cc1NC(=S)N(Cc1ccco1)C(C)c1cccs1 (stereo not given) | 1.51
27 | COc1cccc(C(=O)Nc2cccc(OCC(=O)O)c2)c1 | 0.93
28 | CO/N=C/C(=N\Nc1ccccc1)C(=O)c1ccccc1 | 0.59
29 | C=CCn1c(=S)[nH]c2sccc2c1=O | 1.53
30 | O=c1[nH]c2ccc(Cl)cc2c(-c2ccccc2)c1N1CCN(c2ccccn2)CC1 | 1.64
31 | Cc1cc(SC(C)C(=O)O)nc2ccccc12 (stereo not given) | 1.18
32 | CCc1cc2cc(C)cc(C)c2nc1SCC(=O)N1CCCC1 | 3.07
33 | Cc1cccc(OCC(=O)Nc2ccccc2-c2ccccc2)c1 | 0.63
34 | CCOC(=O)c1cc2sc(C)cc2n1C(C)C(=O)OCC (stereo not given) | 0.84
35 | CC1=CC(C)(C)N(C(=O)c2ccccc2)c2ccccc21 | 0.8

Row | SMILES | PGE2 EC50 with compound [nM]
36 | O=C(Nc1ccccc1N1CCCCC1)c1ccccc1F | 0.61
37 | O=C(O)/C=C/c1ccccc1Oc1ccc(Cl)cc1Cl | 1.21
38 | Cc1cccc(-n2c(CCc3ccccc3)nnc2SCC(=O)c2ccccc2)c1 | 1.16
39 | CCCn1c(Nc2nc3ccccc3n2C)nc2ccccc21 | 1.02
40 | O=c1cc(N2CCCCC2)c(-c2ccccc2)nn1Cc1c(Cl)cccc1Cl | 0.71
41 | CCOC(=O)CN(C(=O)CSc1nnc(Cc2ccccc2)n1-c1ccc(C)cc1)c1ccccc1 | 1.48
42 | O=C1CCC(c2ccccc2)=NN1Cc1c(F)cccc1Cl | 0.9
43 | CC(C)NC(=S)N/N=C1\CCCCC1C1CCCCC1 (stereo not given) | 1.34
44 | CCc1nc(SCC(=O)Nc2nc3c(s2)CCCC3)c2ccccc2n1 | 1.51
45 | O=c1c2ccccc2c(-c2ccc(Br)cc2)nn1Cc1ccccc1 | 0.78
46 | COC(=O)c1c(NC(=O)C2CC2)sc2c1CCCC2 | 0.95
47 | Cc1c(NC(=S)NC(=O)c2ccc(-c3ccc(Cl)cc3)o2)cccc1C(=O)O | 0.25
48 | S=c1[nH]cc(-c2ccccc2)n1-c1ccccc1 | 1.48
49 | CCOP(=O)(OCC)c1nc(-c2ccc(C)cc2)oc1NCc1ccccc1 | 0.83
50 | Cc1cccnc1N(C(=O)Nc1cccc(Cl)c1)C1=NCC(C)(C)S1 | 1.22
51 | C/C(CCc1oc2ccccc2c1-c1ccc(C)o1)=N/O | 0.95
52 | C/C(=N\NC(=O)NC1CCCCC1)C1CCCCC1 | 1.79
53 | CC(C)Cc1nc(N2CCCCC2)c(C#N)c2c1CCC2 | 1.37
54 | Cc1ccccc1-n1c(=O)[nH]c(=O)c2c(N)c(C(=O)c3ccc(Cl)cc3)sc21 | 0.86
55 | Cc1sc(NC(=O)CN2CCOCC2)c(C(=O)c2ccccc2)c1C | 1.18
56 | O=c1c2ccccc2n(Cc2ccc(Cl)cc2)c(=O)n1Cc1ccco1 | 0.82
57 | CC1=CC(C)(C)N(S(=O)(=O)c2ccc(C)cc2)c2cc(C)ccc21 | 1.17
58 | CCOc1ccc(C2=Nn3c(nnc3-c3ccccc3OC)SC2)cc1 | 0.91
59 | CC(=O)CSc1ncnc2sc3c(c12)CCC(C)C3 (stereo not given) | 1.75
60 | O=C(O)c1ccc(N2C(=O)/C(=C/C=C/c3ccccc3)SC2=S)cc1 | 2.89
